As a reminder, the IC50 is the concentration that gives 50% inhibition.

One data set addresses T1, OAT1 (Homo sapiens, UniProt Q4U2R8).
T1 construct: host or cells: MDCK
T1 sequence (Q4U2R8 1-563): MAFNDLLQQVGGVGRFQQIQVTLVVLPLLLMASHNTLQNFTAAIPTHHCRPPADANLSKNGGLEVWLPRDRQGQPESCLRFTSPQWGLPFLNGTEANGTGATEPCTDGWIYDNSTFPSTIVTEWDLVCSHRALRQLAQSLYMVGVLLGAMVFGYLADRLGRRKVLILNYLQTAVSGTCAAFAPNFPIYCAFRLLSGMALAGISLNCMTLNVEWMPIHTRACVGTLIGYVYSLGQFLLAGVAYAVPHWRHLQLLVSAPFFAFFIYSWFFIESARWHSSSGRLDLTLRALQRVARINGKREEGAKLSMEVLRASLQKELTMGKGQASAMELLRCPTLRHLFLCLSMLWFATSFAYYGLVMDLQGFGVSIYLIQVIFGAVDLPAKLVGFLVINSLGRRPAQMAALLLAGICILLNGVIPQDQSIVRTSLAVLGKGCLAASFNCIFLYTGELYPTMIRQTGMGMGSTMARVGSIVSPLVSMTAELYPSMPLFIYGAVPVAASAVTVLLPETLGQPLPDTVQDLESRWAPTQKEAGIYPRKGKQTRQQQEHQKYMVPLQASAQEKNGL
Description: Inhibition of OAT1-mediated 14C-PAH uptake in MDCK-OAT1 cells. The format is cell-based. On the procedure: Cells were cultured in DMEM supplemented with 10% FBS, 100 units/mL penicillin and 100 units/mL streptomycin. […] Cell culture flasks, 24-well cell culture plates, and transwell polycarbonate inserts (12 mm diameter, 0.4 μm pore size) were purchased from Corning Co-star Corp. (Bedford, MA).
The MDCK-OAT1, S2-OAT3, S2-OCT2 and HEK293-OATP1B1 cell lines were utilized in this study. […] Briefly, S2-OAT3, S2-OCT2 and S2-mock cells were trypsinized and uniformly suspended in the culture medium’s designated volume to provide a density of 2.0 × 10^5 cells/mL. A 1.0-mL aliquot of the cell suspension was added into each well of 24-well insert plates. HEK293-OATP1B1, MDCK-OAT1 and their mock cells were seeded in 24-well plates at a density of 1.5 × 10^5 cells/well. […] Three washes terminated the experiment with ice-cold DPBS buffer after removing the incubation buffer. Cells were lysed with 400 μL of […] sodium hydroxide solution. The cell lysate and 3.0 mL of aquasol-2 scintillation fluid were put into a scintillation flask. […] The final concentration of DMSO in the assay was less than 0.1%. All experiments were performed in triplicate.

A further data set has as its target T2, MDR1 (Homo sapiens, UniProt P08183).
T2 construct: host or cells: MDCK
As to the kind of experiment: Inhibition of MDR1-mediated rhodamine 123 efflux in MDCK-MDR1 cells. The format is cell-based. The note with it: for inhibitory effect on efflux of MDR1-mediated rhodamine 123: GA 50–5000 μg/L, PCA 10–1000 μg/L. From the text:
The human multidrug resistance protein (MDR)1-transfected Madin–Darby Canine Kidney (MDCK) cells, human breast cancer resistance protein (BCRP)-transfected MDCK cells, human organic anion transporter (OAT)1-transfected MDCK cells, OAT3-transfected second portion of proximal tubule (S2) cells, human organic cation transporter (OCT)2-transfected S2 cells, human organic anion transporting polypeptide (OATP)1B1-transfected human embryonic kidney 293 (HEK293) cells and their MOCK cells were kindly provided by Japan Fuji Biomedical Co., Ltd. (Osaka, Japan). Cells were cultured in DMEM supplemented with 10% FBS, 100 units/mL penicillin and 100 […]. All cells were incubated in a humidified atmosphere of 95% air and 5% CO2 at 37 °C. A solution of 0.25% trypsin-EDTA was used to detach the cells from flasks. Cell culture flasks, 24-well cell culture plates, and transwell polycarbonate inserts (12 mm diameter, 0.4 μm pore size) were purchased from Corning Co-star Corp. (Bedford, MA).
Inhibitory effects of GA and PCA on efflux transporters MDR1 and BCRP were investigated with the fluorogenic substrates rhodamine 123 (10 µM) and lucifer yellow (10 µM), respectively. The positive control inhibitors of MDR1 and BCRP were verapamil (10 µM) and cyclosporine (20 µM), respectively. The efflux experiments were adapted from previously reported methods with minor modifications (Reznicek et al. [2017]). Briefly, MDCK-MDR1, MDCK-BCRP and MDCK-mock cells were trypsinized and uniformly suspended in the designated volume of HBSS to provide a density of 4.0 × 10^5 cells/mL. For 0.5 mL of cell suspension and 1.5 mL of HBSS buffer medium were added in the apical and basolateral compartments of 12-well Transwell plates. After cultivation for 7 d, cells were washed twice and equilibrated for 30 min at 37 °C with the pre-warmed HBSS buffer. The integrity of cell monolayers was verified by the determination of the value of transepithelial electrical resistance (TEER) using a Millipore Millicell-ERS system (Millipore Corporation, Bedford, MA) (200–300 Ω × cm^2). An aliquot of 1.5 mL transport buffer containing probe substrates was added in the basolateral compartment to initiate the efflux in the presence or absence of GA (50, 150, 500, 1500 and 5000 μg/L), PCA (10, 30, 100, 300 and 1000 μg/L) or positive inhibitors at 37 °C. An aliquot of 0.5 mL empty transport buffer was placed in the apical compartment. After 2 h of co-incubation, 100 μL of HBSS in the apical compartment was transferred to 96-well plates. Fluorescence was measured at 485 nm (excitation) and 546 nm (emission) for rhodamine 123, and 425 nm (excitation) and 528 nm (emission) for Lucifer yellow. The final concentration of DMSO in the assay was less than 0.1%. All experiments were performed in triplicate.

[1] abbreviates: estimated, 14C-PAH 5 µM, MDCK-OAT1 cells.

≈ marks a conversion by molar mass, not a printed value.

T2 sequence (P08183 whole entry): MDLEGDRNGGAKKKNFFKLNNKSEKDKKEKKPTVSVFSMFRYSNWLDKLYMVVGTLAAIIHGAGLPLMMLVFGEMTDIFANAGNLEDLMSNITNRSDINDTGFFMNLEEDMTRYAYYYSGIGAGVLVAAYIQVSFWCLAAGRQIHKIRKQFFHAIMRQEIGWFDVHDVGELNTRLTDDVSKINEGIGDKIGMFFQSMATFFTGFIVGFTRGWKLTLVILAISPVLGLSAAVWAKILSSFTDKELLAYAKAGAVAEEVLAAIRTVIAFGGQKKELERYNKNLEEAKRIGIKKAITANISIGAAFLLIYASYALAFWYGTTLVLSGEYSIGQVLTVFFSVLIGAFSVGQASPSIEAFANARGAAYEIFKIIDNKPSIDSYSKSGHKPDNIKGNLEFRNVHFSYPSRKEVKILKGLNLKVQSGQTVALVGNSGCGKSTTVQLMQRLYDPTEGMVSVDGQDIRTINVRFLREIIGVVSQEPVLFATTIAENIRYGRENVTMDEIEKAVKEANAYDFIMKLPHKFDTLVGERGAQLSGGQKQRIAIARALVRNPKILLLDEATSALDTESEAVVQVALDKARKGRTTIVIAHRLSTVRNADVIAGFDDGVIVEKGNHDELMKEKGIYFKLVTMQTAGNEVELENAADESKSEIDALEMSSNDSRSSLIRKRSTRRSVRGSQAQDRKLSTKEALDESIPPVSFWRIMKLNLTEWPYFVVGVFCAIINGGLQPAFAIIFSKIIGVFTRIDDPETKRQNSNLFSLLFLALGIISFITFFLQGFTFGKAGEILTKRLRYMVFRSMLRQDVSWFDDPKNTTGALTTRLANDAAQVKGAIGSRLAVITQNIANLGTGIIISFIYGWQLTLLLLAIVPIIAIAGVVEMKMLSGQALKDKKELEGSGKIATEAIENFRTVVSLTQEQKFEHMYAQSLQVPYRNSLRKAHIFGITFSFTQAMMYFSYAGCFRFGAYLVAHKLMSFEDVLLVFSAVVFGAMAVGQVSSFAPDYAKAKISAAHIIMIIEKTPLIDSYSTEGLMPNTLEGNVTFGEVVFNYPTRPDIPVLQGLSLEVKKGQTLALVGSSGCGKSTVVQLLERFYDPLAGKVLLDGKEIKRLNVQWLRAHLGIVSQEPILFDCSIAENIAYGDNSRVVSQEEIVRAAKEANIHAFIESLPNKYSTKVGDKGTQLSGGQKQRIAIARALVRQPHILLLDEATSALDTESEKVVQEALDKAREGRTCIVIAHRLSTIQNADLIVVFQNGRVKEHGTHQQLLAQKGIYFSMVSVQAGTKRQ

`O=C(O)c1cc(O)c(O)c(O)c1` [GA, gallic acid]: at OAT1 (setting [1]), the IC50 is 3.73 µM and the “IC50 (OAT1)” value is 0.6341 µg/mL (≈ 3.73 µM). Further, the “inhibitory effect on efflux of MDR1-mediated rhodamine 123” value against MDR1 is “no significant inhibitory effect”. The “efflux of rhodamine 123 compared with the control” value at MDR1 (relatively high concentrations) is “significant increase”.

On to `O=C(O)c1ccc(O)c(O)c1` [PCA, protocatechuic acid], for which, at OAT1 (GA 50–5000 μg/L, PCA 10–1000 μg/L), the “inhibitory effect on OAT1” value is given as “no significant inhibitory effect”. The “inhibitory effect on efflux of MDR1-mediated rhodamine 123” value on MDR1 is recorded as “no significant inhibitory effect”. On MDR1 (human, probe rhodamine 123 (10 µM), MDCK-MDR1 cells, PCA 1000 μg/L (6.5 µM), read-out: efflux of rhodamine 123, % of control), the activity at 2 h, 6.5 µM was approximately 190%.

The record behind these values is article PMC8216263 (Pharmaceutical Biology, 2021).
